The results in this text go back to PMC6030209, “Structure-Activity Investigations and Optimisations of Non-metabolite Agonists for the Succinate Receptor 1” (Scientific Reports, 2018).

Like-named read-outs stand apart in the source and are kept apart here. Bounds are passed on as bounds.

Type in all cases: cell-based
One experiment has as its target T1, mSUCNR1 (Mus musculus, UniProt Q99MT6).
T1 construct: FLAG (own knowledge: pCMV-Tag 2B is an N-terminal FLAG vector); host or cells: HEK-293, transient transfection with Lipofectamine-2000
T1 sequence (Q99MT6 1-317): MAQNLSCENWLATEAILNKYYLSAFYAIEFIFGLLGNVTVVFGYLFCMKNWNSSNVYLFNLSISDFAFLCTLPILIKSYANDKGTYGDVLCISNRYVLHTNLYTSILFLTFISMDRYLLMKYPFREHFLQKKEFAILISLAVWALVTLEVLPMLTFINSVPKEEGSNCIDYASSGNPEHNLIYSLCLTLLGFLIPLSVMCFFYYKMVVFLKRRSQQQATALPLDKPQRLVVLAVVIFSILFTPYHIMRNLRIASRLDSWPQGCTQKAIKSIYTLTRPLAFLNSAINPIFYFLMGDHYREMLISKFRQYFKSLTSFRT
Nature of the experiment: IP3 turnover assay in mSUCNR1 transfected HEK-293 cells. To be noted: for mSUCNR1 efficacy, %: efficacy relative to succinate (100%), HEK cells (N = 3); for mSUCNR1 efficacy, % / mSUCNR1 % @10^−4M: IP3 turnover; for mSUCNR1 % @10^−4M: relative to succinate (100%). As for the experimental part:
(§1) Receptor constructs for mSUCNR1 and hSUCNR1 were bought from Origene and cloned into the eukaryotic expression vector pCMV-Tag(2B) (Stratagene).
(§2) Transient transfection of the HEK-293 cells was done with Lipofectamine-2000 according to manufacturer’s protocol. Cells were supplemented with fresh medium after 5 h.
(§3) 96-well plates were coated with poly-D-lysine and HEK-293 cells were plated (35.000 cells/well). Cells were transfected for 5 h the following day and subsequently incubated O/N with 0.5 μCi/mL myo[3H]inositol (Perkin Elmer) in 100 μL growth medium. On day 3 cells were washed with 200 µL HBSS/well (Gibco, Life Technologies) followed by a pre-incubation (30 min, 37 °C) with 100 µL HBSS supplemented with 10 mM LiCl. Cells were stimulated with ligand (120 min, 37 °C) and lysed with 50 µL 10 mM formic acid (30 min on ice). In a white 96 well plate 20 µL cell extracts and 80 µL 1:8 diluted YSi scintillation beads (Perkin Elmer) were mixed. The plate was spun down, and a Packard Top Count NXT counter recorded light emission (scintillation) after an 8 h delay.

The subject of a further experiment is SUCNR1. Nature of the experiment: Active/inactive grouping by EC50 threshold (ALiBERO training set, Table S1). To be noted: active (1) / inactive (0), EC50 threshold of 10 µM. An excerpt: In brief, starting from the homology model supported by mutagenesis data[4], ALiBERO introduced receptor flexibility via Normal Mode Analysis and Monte Carlo sampling, to generate a small subset of receptor models (pockets). […] For a list of all compounds used in the optimisation protocol, see Table S1. Receptor structures were then chosen based on their ability to discriminate actives from inactives in a retrospective virtual screening using the docking protocol and scoring function in ICM (Molsoft L.L.C., San Diego, CA, USA)[20], as measured by the normalised square root area under the curve (NSQ_AUC). […] The ALiBERO-optimised receptor ensemble was subsequently validated in a virtual ligand screening using an external test set with a higher active:decoy ratio (~1:50).
ALiBERO is an iterative sampling-selection protocol for receptor optimisation that relies on the use of ligand information for selecting the best-performing receptor conformations. Homology models of the mouse SUCNR1 receptor were constructed according to Trauelsen et al.[4] and loaded into ICM (Molsoft L.L.C., San Diego, CA, USA). The structure was converted into an ICM object, thereby assigning protein atom types, optimising hydrogens and His, Pro, Asn, […] and Cys side-chain conformations. […] For a list of all compounds used in the optimisation protocol, see Table S1. ALiBERO was performed using the prepared receptor structure and ligand training set as input. Binding site residues were manually selected based on proximity to the position of MRS2500 in the superimposed structure of the P2Y1 receptor (PDB 4XNW). 100 elastic network normal mode analysis derived conformers were built in order to recreate backbone and side-chain flexibility (T = 300 K). Next, a flexible-ligand static-receptor small-scale virtual screening was performed on each of the receptor conformers, from which several pockets were selected for the following generation. The ligand and decoy molecules were docked into mSUCNR1, represented as pre-calculated potential grids and then sorted according to their ICM VLS scores. The maximum number of complementary pockets for each generation was set to 5 with a maximum of 10 generations. Receptor models were selected based on their combined screening performance, as determined by the normalised square root area under the curve, NSQ_AUC. After each round of virtual screening, an all-atom Monte Carlo side-chain refinement was performed to account for induced-by-ligand changes. NSQ_AUC values were calculated according to Katritch et al.[16].

A further experiment has as its target T2, hSUCNR1 (Homo sapiens, UniProt Q9BXA5).
T2 construct: FLAG (own knowledge: pCMV-Tag 2B is an N-terminal FLAG vector); host or cells: HEK-293, transient transfection with Lipofectamine-2000
T2 sequence (Q9BXA5 1-334): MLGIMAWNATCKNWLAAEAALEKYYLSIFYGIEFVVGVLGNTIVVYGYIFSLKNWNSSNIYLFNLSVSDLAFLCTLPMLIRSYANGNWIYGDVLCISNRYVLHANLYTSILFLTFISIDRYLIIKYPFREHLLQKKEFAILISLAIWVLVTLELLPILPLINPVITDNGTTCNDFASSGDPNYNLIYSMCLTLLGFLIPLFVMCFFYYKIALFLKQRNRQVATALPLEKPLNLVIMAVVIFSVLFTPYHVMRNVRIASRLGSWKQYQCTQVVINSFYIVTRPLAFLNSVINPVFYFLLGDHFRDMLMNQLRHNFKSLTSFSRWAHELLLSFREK
Nature of the experiment: IP3 turnover assay in hSUCNR1 transfected HEK-293 cells. To be noted: for hSUCNR1 efficacy, %: efficacy relative to succinate (100%), HEK cells (N = 3); for hSUCNR1 efficacy, % / hSUCNR1 % @10^−4M: IP3 turnover; for hSUCNR1 % @10^−4M: relative to succinate (100%). As for the experimental part:
as §1, §2, §3

Where [1] appears, read: dose-response curves of induction of IP3 turnover in SUCNR1 transfected HEK cells (N = 3), read-out: mSUCNR1 pEC50 (converted).
Setting [2] is: dose-response curves of induction of IP3 turnover in SUCNR1 transfected HEK cells (N = 3), read-out: hSUCNR1 pEC50 (converted).
[3] abbreviates: dose-response curves of induction of IP3 turnover in SUCNR1 transfected HEK cells (N = 3).

Consider `O=C(O)C[C@H](NC(=O)c1ccc(-c2cccc(CO)c2)o1)C(=O)O` [Compound 14, (5-(3-(Hydroxymethyl)phenyl)furan-2-carbonyl)-L-aspartic acid], for which, at mSUCNR1, the EC50 was 1950 nM and the “mSUCNR1 efficacy, %” value is 79.6 ± 3.7%. The decrease in potency at mSUCNR1 (relative to the 3-methyl (12), orthologue not stated) was determined as 3 fold. Moreover, in the experiment with SUCNR1, the Active is recorded as 1 (active (1)). At hSUCNR1, the EC50 is 15500 nM and the “hSUCNR1 efficacy, %” value amounted to 74.2 ± 11.8%.

Take `COc1ccc(-c2cccc(C(=O)N[C@@H](CC(=O)O)C(=O)O)n2)cc1` [Compound 29, (6-(4-Methoxyphenyl)picolinoyl)-L-aspartic acid]: the EC50 is 182 nM at mSUCNR1 (setting [1]) and 141 nM at hSUCNR1 (setting [2]). For the same compound, the “mSUCNR1 efficacy, %” value at mSUCNR1 came out at 71.2 ± 3.2%. Besides, in the experiment with SUCNR1, the Active is on record as 1 (active (1)). Also, the “hSUCNR1 efficacy, %” value at hSUCNR1 is recorded as 52.6 ± 3.9%.

For the compound `CC(C)Oc1ccc(-c2ccc(C(=O)N[C@@H](CC(=O)O)C(=O)O)o2)cc1` [Compound 22, (5-(4-Isopropoxyphenyl)furan-2-carbonyl)-L-aspartic acid], on mSUCNR1, the EC50 was 51.3 nM and the “mSUCNR1 efficacy, %” value is listed as 75.6 ± 1.7%. For the same compound, the Active with SUCNR1 is 1 (active (1)). Moreover, at hSUCNR1, the EC50 was 145 nM and the “hSUCNR1 efficacy, %” value is reported as 69.6 ± 4.3%.

For the compound `O=C(O)C[C@H](NC(=O)c1ccc(Br)cc1)C(=O)O` [Compound 7, (4-Bromobenzoyl)-L-aspartic acid], on mSUCNR1, the “mSUCNR1 % @10^−4M” value worked out at 15% @10^−4M. Besides, in the experiment with SUCNR1, the Active is 0 (inactive (0)). Also, the “hSUCNR1 % @10^−4M” value on hSUCNR1 worked out at 8% @10^−4M.

For the compound `O=C(O)C[C@H](NC(=O)c1cccc(-c2ccc(OC(F)(F)F)cc2)c1)C(=O)O` [Compound 30, (4′-(Trifluoromethoxy)-[1,1′-biphenyl]-3-carbonyl)-L-aspartic acid], the EC50 at mSUCNR1 (setting [1]) was 1450 nM; on hSUCNR1 (setting [2]), 58.9 nM. The “mSUCNR1 efficacy, %” value on mSUCNR1 is 45.3 ± 3.4%. Moreover, the Active in the experiment on SUCNR1 was 1 (active (1)). In addition, the “hSUCNR1 efficacy, %” value at hSUCNR1 is on record as 49.2 ± 2.7%.

For the compound `O=C(O)C[C@H](NC(=O)Cc1ccc(-c2ccc(F)cc2)cc1)C(=O)O` [Compound 9, (2-(4′-Fluoro-[1,1′-biphenyl]-4-yl)acetyl)-L-aspartic acid], the “mSUCNR1 % @10^−4M” value at mSUCNR1 is given as 15% @10^−4M. Moreover, the Active in the experiment with SUCNR1 was 0 (inactive (0)). For the same compound, the “hSUCNR1 % @10^−4M” value on hSUCNR1 is listed as 25% @10^−4M.

In the case of `Cc1ccccc1-c1ccc(C(=O)N[C@@H](CC(=O)O)C(=O)O)o1` [Compound 11, (5-(o-Tolyl)furan-2-carbonyl)-L-aspartic acid], on mSUCNR1, the EC50 is 741 nM and the “mSUCNR1 efficacy, %” value is on record as 76.7 ± 3.1%. For the same compound, in the experiment with SUCNR1, the Active was 1 (active (1)). Moreover, on hSUCNR1, the EC50 is 5370 nM and the “hSUCNR1 efficacy, %” value stood at 94.7 ± 8.7%.

As to `CC1(COc2ccc(-c3ccc(C(=O)N[C@@H](CC(=O)O)C(=O)O)o3)cc2)COC1` [Compound 23, (5-(4-((3-Methyloxetan-3-yl)methoxy)phenyl)furan-2-carbonyl)-L-aspartic acid], on mSUCNR1, the EC50 is 107 nM and the “mSUCNR1 efficacy, %” value was 82.4 ± 1.9%. On mSUCNR1 (relative to the 4-methoxy compound 17, orthologue not stated), this compound displayed a reduction of potency greater than 2 fold. Moreover, the Active in the experiment with SUCNR1 was 1 (active (1)). At hSUCNR1, the EC50 is 537 nM and the “hSUCNR1 efficacy, %” value amounted to 76.5 ± 3.1%.

Consider `N#Cc1ccc(-c2ccc(C(=O)N[C@@H](CC(=O)O)C(=O)O)o2)cc1` [Compound 19, (5-(4-Cyanophenyl)furan-2-carbonyl)-L-aspartic acid], for which, on mSUCNR1, the EC50 was 162 nM and the “mSUCNR1 efficacy, %” value was 76.0 ± 1.5%. In addition, the Active in the experiment with SUCNR1 is reported as 1 (active (1)). At hSUCNR1, the EC50 was 407 nM and the “hSUCNR1 efficacy, %” value was determined as 72.1 ± 3.2%.

On to `O=C(O)C[C@H](NC(=O)c1ccc(-c2ccc(O)cc2)o1)C(=O)O` [Compound 15, (5-(4-Hydroxyphenyl)furan-2-carbonyl)-L-aspartic acid], for which, at mSUCNR1, the EC50 is 151 nM and the “mSUCNR1 efficacy, %” value is on record as 74.8 ± 2.0%. Also, in the experiment on SUCNR1, the Active is recorded as 1 (active (1)). Further, on hSUCNR1, the EC50 is 741 nM and the “hSUCNR1 efficacy, %” value is given as 71.1 ± 4.2%.

Turning to `Cc1ccc(-c2ccc(C(=O)N[C@@H](CC(=O)O)C(=O)O)o2)cc1` [Compound 13, (5-(p-Tolyl)furan-2-carbonyl)-L-aspartic acid], the “mSUCNR1 pEC50” value on mSUCNR1 (setting [3]) is reported as 6.83 ± 0.11. Further, the “mSUCNR1 efficacy, %” value at mSUCNR1 was 73.2 ± 2.7%. Moreover, in the experiment with SUCNR1, the Active is 1 (active (1)). Also, the “hSUCNR1 pEC50” value on hSUCNR1 (setting [3]) was found to be 6.33 ± 0.14. In addition, the “hSUCNR1 efficacy, %” value on hSUCNR1 was found to be 69.1 ± 3.9%.

In the case of `COc1ccc(-c2ccc(C(=O)N[C@@H](CC(=O)O)C(=O)O)o2)cc1` [Compound 17, (5-(4-Methoxyphenyl)furan-2-carbonyl)-L-aspartic acid], on mSUCNR1, the EC50 was 40.7 nM and the “mSUCNR1 efficacy, %” value is on record as 84.2 ± 1.8%. Also, the Active in the experiment with SUCNR1 is on record as 1 (active (1)). Moreover, at hSUCNR1, the EC50 was 389 nM and the “hSUCNR1 efficacy, %” value was found to be 85.3 ± 4.5%.
